Measurements from publication PMC10023787, “Trio-pharmacophore DNA-encoded chemical library for simultaneous selection of fragments and linkers” (Nature Communications, 2023).

Legend:
[1] = molecular target: T1, MMP-2 (Homo sapiens, UniProt P08253); test: MMP-2 inhibition assay (fluorogenic peptide substrate); assay type: biochemical; settings: for remaining activity (%): MMP-2; for IC50: mean ± SE, n.d: not detected, Fig. 5d unit inferred, µM, read-out: IC50
T1 construct: purchased Sino Biological 10082-HNAH
T1 sequence (P08253 110-660): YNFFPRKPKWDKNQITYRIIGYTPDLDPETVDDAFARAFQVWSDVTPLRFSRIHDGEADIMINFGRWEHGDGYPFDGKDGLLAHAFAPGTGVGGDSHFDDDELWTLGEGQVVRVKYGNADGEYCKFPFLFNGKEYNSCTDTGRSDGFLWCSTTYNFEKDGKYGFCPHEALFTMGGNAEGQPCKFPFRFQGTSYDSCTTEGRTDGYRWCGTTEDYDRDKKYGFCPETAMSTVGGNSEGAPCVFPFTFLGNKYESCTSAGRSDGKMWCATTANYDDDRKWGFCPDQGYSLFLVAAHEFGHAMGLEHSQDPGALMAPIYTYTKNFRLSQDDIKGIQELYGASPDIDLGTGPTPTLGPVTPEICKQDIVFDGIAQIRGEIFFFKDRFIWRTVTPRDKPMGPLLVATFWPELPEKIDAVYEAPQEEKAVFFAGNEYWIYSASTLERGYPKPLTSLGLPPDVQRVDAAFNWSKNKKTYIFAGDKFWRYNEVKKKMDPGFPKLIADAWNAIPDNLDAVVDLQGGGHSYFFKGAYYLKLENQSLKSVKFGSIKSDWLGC
In short: (§1)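 Human proMMP-2 and proMMP-9 were activated with 1 mM APMA for 2 h at 37 °C, then used at 6.5 nM (MMP-2) or 10 nM (MMP-9) final in Tris/NaCl/CaCl2/Brij 35 buffer, pH 7.5. After 30 min preincubation with compound at RT, 25 μM FRET peptide substrate was added and fluorescence (ex 280/em 360 nm) followed for 30 min. IC50 came from logistic fits of Vmax.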

[2] = molecular target: T2, MMP-9 (Homo sapiens, UniProt P14780); test: MMP-9 inhibition assay (fluorogenic peptide substrate); assay type: biochemical; parameters: remaining enzyme activity (% of control): scale not given here; settings: for remaining enzyme activity (% of control): MMP-9; for IC50: mean ± SE, n.d: not detected, Fig. 5e prints no unit, µM, read-out: IC50
T2 construct: purchased Sino Biological 10327-HNAH
In short: as §1

T2 sequence (P14780 107-707 limits assumed): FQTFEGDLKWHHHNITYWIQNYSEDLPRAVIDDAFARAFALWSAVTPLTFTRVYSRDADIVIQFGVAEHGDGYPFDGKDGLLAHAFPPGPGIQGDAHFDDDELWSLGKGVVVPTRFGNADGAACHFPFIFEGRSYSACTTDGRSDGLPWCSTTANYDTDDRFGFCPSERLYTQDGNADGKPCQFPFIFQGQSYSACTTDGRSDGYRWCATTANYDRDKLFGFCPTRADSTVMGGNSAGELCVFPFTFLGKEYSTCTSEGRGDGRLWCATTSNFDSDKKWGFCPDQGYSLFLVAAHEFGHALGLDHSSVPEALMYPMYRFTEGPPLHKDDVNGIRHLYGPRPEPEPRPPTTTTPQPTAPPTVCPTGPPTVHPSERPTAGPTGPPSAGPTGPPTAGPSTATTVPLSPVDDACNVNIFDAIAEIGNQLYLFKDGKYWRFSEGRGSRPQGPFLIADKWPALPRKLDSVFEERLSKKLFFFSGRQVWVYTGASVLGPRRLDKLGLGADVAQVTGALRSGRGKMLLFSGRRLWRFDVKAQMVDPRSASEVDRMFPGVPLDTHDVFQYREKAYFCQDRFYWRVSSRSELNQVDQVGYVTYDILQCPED

| SMILES | remaining activity (%) ([1]; concentration 0.0156 µM) | remaining activity (%) ([1]; concentration 0.08 µM) | remaining activity (%) ([1]; concentration 0.39 µM) | remaining activity (%) ([1]; concentration 1.95 µM) | remaining activity (%) ([1]; concentration 9.75 µM) | remaining activity (%) ([1]; concentration 48.76 µM) | remaining activity (%) ([1]; concentration 243.80 µM) | remaining activity (%) ([1]; concentration 1219.00 µM) | IC50 [1] [µM] | remaining enzyme activity (% of control) ([2]; concentration 0.08 µM) | remaining enzyme activity (% of control) ([2]; concentration 0.39 µM) | remaining enzyme activity (% of control) ([2]; concentration 1.95 µM) | remaining enzyme activity (% of control) ([2]; concentration 9.75 µM) | remaining enzyme activity (% of control) ([2]; concentration 48.76 µM) | remaining enzyme activity (% of control) ([2]; concentration 243.80 µM) | remaining enzyme activity (% of control) ([2]; concentration 1219.00 µM) | IC50 [2] [µM] | remaining activity (%) ([1]; concentration 0.12 µM) | remaining activity (%) ([1]; concentration 0.49 µM) | remaining activity (%) ([1]; concentration 7.81 µM) | other results |
| --- | --- | --- | --- | --- | --- | --- | --- | --- | --- | --- | --- | --- | --- | --- | --- | --- | --- | --- | --- | --- | --- |
| Cc1cc(=O)[nH]c(-n2nc(C)c(CCC(=O)NCc3c[nH]nn3)c2C)n1 [693+787 Linker 1] | 96.66 | 98.78 | 101.13 | 92.82 | 86.30 | 75.55 | 47.37 | 8.68 | 204 ± 37.3 | 91.27 | 99.91 | 99.61 | 100.27 | 85.00 | 58.59 | 5.52 | 312 ± 67.1 | – | – | – | – |
| Cc1cc(=O)[nH]c(-n2nc(C)c(CCC(=O)NCCCCCCCCNC(=O)CCC(=O)NCc3c[nH]nn3)c2C)n1 [693+787 Linker 4] | 90.99 | 98.42 | 91.65 | 90.86 | 84.93 | 72.64 | 40.04 | 8.77 | 169 ± 32.6 | 100.71 | 80.60 | 86.03 | 91.12 | 86.75 | 51.81 | 0.00 | 250 ± 24.6 | – | – | – | – |
| Cc1cc(=O)[nH]c(-n2nc(C)c(CCC(=O)NCCOCCOCCNC(=O)CCC(=O)NCc3c[nH]nn3)c2C)n1 [693+787 Linker 10] | 92.29 | 75.74 | 87.35 | 94.03 | 78.88 | 75.04 | 39.80 | 7.43 | 171 ± 12.6 | 96.44 | 100.55 | 96.19 | 93.95 | 88.14 | 47.49 | 12.51 | 230 ± 51.3 | – | – | – | – |
| Cc1cc(=O)[nH]c(-n2nc(C)c(CCC(=O)NCCSCC(=O)NCc3c[nH]nn3)c2C)n1 [693+787 Linker 24] | 88.74 | 98.28 | 98.89 | 81.72 | 92.63 | 69.73 | 36.49 | 2.36 | 149 ± 25.1 | 94.26 | 97.78 | 91.22 | 96.92 | 92.11 | 57.21 | 9.75 | 270 ± 31.4 | – | – | – | – |
| Cc1cc(=O)[nH]c(-n2nc(C)c(CCC(=O)NCCNC(=O)c3cnc4c(c3)nc(O)n4C)c2C)n1 [693+826 Linker 1] | – | – | – | 97.44 | – | – | – | – | – | – | – | 98.21 | – | – | – | – | – | 100.61 | 101.27 | 105.49 | remaining activity (%) ([1]; concentration 31.25 µM): 103.49; remaining activity (%) ([1]; concentration 125.00 µM): 92.36; remaining activity (%) ([1]; concentration 500.00 µM): 84.19; remaining enzyme activity (% of control) ([2]; concentration 0.12 µM): 100.10; remaining enzyme activity (% of control) ([2]; concentration 0.49 µM): 107.84; remaining enzyme activity (% of control) ([2]; concentration 7.81 µM): 95.90; remaining enzyme activity (% of control) ([2]; concentration 31.25 µM): 93.30; remaining enzyme activity (% of control) ([2]; concentration 125.00 µM): 76.07; remaining enzyme activity (% of control) ([2]; concentration 500.00 µM): 54.11 |
| Cc1cc(=O)[nH]c(-n2nc(C)c(CCC(=O)NCCCCCCCCNC(=O)c3cnc4c(c3)nc(O)n4C)c2C)n1 [693+826 Linker 4] | – | – | – | 95.29 | – | – | – | – | – | – | – | 96.18 | – | – | – | – | – | 91.52 | 100.66 | 98.79 | remaining activity (%) ([1]; concentration 31.25 µM): 92.06; remaining activity (%) ([1]; concentration 125.00 µM): 94.34; remaining activity (%) ([1]; concentration 500.00 µM): 70.32; remaining enzyme activity (% of control) ([2]; concentration 0.12 µM): 100.31; remaining enzyme activity (% of control) ([2]; concentration 0.49 µM): 99.68; remaining enzyme activity (% of control) ([2]; concentration 7.81 µM): 93.00; remaining enzyme activity (% of control) ([2]; concentration 31.25 µM): 90.00; remaining enzyme activity (% of control) ([2]; concentration 125.00 µM): 80.00; remaining enzyme activity (% of control) ([2]; concentration 500.00 µM): 69.08 |
| Cc1cc(=O)[nH]c(-n2nc(C)c(CCC(=O)NCCOCCOCCNC(=O)c3cnc4c(c3)nc(O)n4C)c2C)n1 [693+826 Linker 10] | – | – | – | 91.10 | – | – | – | – | – | – | – | 89.00 | – | – | – | – | – | 88.40 | 91.73 | 90.16 | remaining activity (%) ([1]; concentration 31.25 µM): 89.04; remaining activity (%) ([1]; concentration 125.00 µM): 84.64; remaining activity (%) ([1]; concentration 500.00 µM): 68.06; remaining enzyme activity (% of control) ([2]; concentration 0.12 µM): 93.04; remaining enzyme activity (% of control) ([2]; concentration 0.49 µM): 87.11; remaining enzyme activity (% of control) ([2]; concentration 7.81 µM): 87.83; remaining enzyme activity (% of control) ([2]; concentration 31.25 µM): 75.00; remaining enzyme activity (% of control) ([2]; concentration 125.00 µM): 69.92; remaining enzyme activity (% of control) ([2]; concentration 500.00 µM): 55.88 |
| Cc1cc(=O)[nH]c(-n2nc(C)c(CCC(=O)NCCNC(=O)CC(=O)C=CCCCCNC(=O)c3cnc4c(c3)nc(O)n4C)c2C)n1 [693+826 Linker 12] | – | – | – | 90.36 | – | – | – | – | 210 ± 35.3 | – | – | 83.12 | – | – | – | – | 58.9 ± 10.5 | 103.13 | 90.37 | 93.51 | remaining activity (%) ([1]; concentration 31.25 µM): 77.90; remaining activity (%) ([1]; concentration 125.00 µM): 65.75; remaining activity (%) ([1]; concentration 500.00 µM): 29.31; remaining enzyme activity (% of control) ([2]; concentration 0.12 µM): 100.00; remaining enzyme activity (% of control) ([2]; concentration 0.49 µM): 80.27; remaining enzyme activity (% of control) ([2]; concentration 7.81 µM): 88.09; remaining enzyme activity (% of control) ([2]; concentration 31.25 µM): 65.00; remaining enzyme activity (% of control) ([2]; concentration 125.00 µM): 27.22; remaining enzyme activity (% of control) ([2]; concentration 500.00 µM): 12.87 |
